Data from US20220401439A1, “INTRANASAL PHARMACEUTICAL COMPOSITIONS OF CGRP INHIBITORS” (Biohaven Pharmaceutical Holding Company Ltd., priority 2019, published 2022).

What was measured:
[1] = Phase 1 multiple ascending dose (MAD) study, intranasal, pharmacokinetics; design: species or system human; details: in vivo
Protocol: A Phase 1, single-center, randomized, double-blind, placebo-controlled, sequential multiple ascending dose (MAD) study with 2 alternate dosing arms was conducted. […] The MAD portion of the study consists of 4 cohorts, with a maximum dose of 20 mg administered once daily for up to 14 days in 3 cohorts, and 20 mg administered twice daily for up to 8 days in the fourth cohort.
In addition to the 4 MAD cohorts, there were 2 alternate dosing cohorts, each consisting of 1 day dosing. The first alternate dosing cohort assessed the effect of 2 sequential administrations of 20 mg (20 mg spray [100 μL of 200 mg/mL] in alternate nostrils); with a 30 minute interval between administrations. A 2nd alternate dosing cohort assessed the effect of 2 sequential administrations of 20 mg (20 mg spray [100 μL of 200 mg/mL] in alternate nostrils); with a nose blow and 5 minute interval between administrations.
The PK data were collected from subjects in Cohorts 1 to 4.

logD of drug substance = type: physicochemical; details: mono-hydrochloride salt form
[2] = Phase 2/3 trial BHV3500-201 (Study 201), safety, adverse events and liver function tests; type: in vivo, human
Excerpt: The majority (>80%) of AEs were mild in intensity.

pKa of drug substance = type: physicochemical; details: mono-hydrochloride salt form
clinical = details: human, in vivo; for AUC(0-inf): AUC[0-inf] (ng · h/mL) GM; for AUC(0-t): AUC[0-t] (ng · h/mL) GM; for Cmax: Cmax (ng/mL) GM
Excerpt: BHV3500-101 is a completed Phase 1, single-center, placebo-controlled, randomized, double-blind, sequential SAD study. This study consisted of up to 11 cohorts.
In total, 41 subjects were included in the PK analyses.

[3] = human, inhaled or intranasal, 5 mg
[4] = human, inhaled or intranasal, 10 mg
[5] = human, inhaled or intranasal, 20 mg

Structure (SMILES): Cc1cc(C[C@@H](NC(=O)N2CCC(c3cc4ccccc4[nH]c3=O)CC2)C(=O)N2CCN(C3CCN(C)CC3)CC2)cc2cn[nH]c12 [Zavegepant, (R)—N-(3-(7-methyl-1H-indazol-5-yl)-1-(4-(1-methylpiperidin-4-yl)piperazin-1-yl)-1-oxopropan-2-yl)-4-(2-oxo-1,2-dihydroquinolin-3-yl)piperidine-1-carboxamide]
- half-life ([1]; human, 20 mg): 3.69 to 4.93 h
- Tmax ([1]; human, Tmax): ~30 min
- AUC [1, 3]: 20.7 ng·h/mL
- AUC0-24 (ng*h/mL) geometric mean [1, 3]: 24.95 ng·h/mL
- AUC0-τ ss (ng*h/mL) geometric mean [1, 3]: 20.66 ng·h/mL
- AUC(0-inf) [1, 3]: 22.4 ng·h/mL
- Cl/F (L/h) Mean [1, 3]: 293.27 L/h
- Tmax (h) Mean [1, 3]: 0.52 h
- Vd/F [1, 3]: 1570 L
- half-life [1, 3]: 3.69 h
- AUC(0-t) ([1]; human, inhaled or intranasal, 5 mg, AUC0-24 (ng*h/mL) geometric mean): 24.9 ng·h/mL
- AUC(0-t) ([1]; human, inhaled or intranasal, 5 mg, AUC0-t (ng*h/mL) geometric mean): 19 ng·h/mL
- Tmax ([1]; human, inhaled or intranasal, 5 mg, Tmax (h) Mean): 31.2 min
- AUC [1, 4]: 32.9 ng·h/mL
- AUC0-24 (ng*h/mL) geometric mean [1, 4]: 29.61 ng·h/mL
- AUC0-τ ss (ng*h/mL) geometric mean [1, 4]: 32.85 ng·h/mL
- AUC(0-inf) [1, 4]: 33.9 ng·h/mL
- Cl/F (L/h) Mean [1, 4]: 341.09 L/h
- Tmax (h) Mean [1, 4]: 0.57 h
- Vd/F [1, 4]: 1660 L
- half-life [1, 4]: 3.84 h
- AUC(0-t) ([1]; human, inhaled or intranasal, 10 mg, AUC0-24 (ng*h/mL) geometric mean): 29.6 ng·h/mL
- AUC(0-t) ([1]; human, inhaled or intranasal, 10 mg, AUC0-t (ng*h/mL) geometric mean): 30.9 ng·h/mL
- Tmax ([1]; human, inhaled or intranasal, 10 mg, Tmax (h) Mean): 26.4 min
- AUC [1, 5]: 91 ng·h/mL
- AUC0-24 (ng*h/mL) geometric mean [1, 5]: 80.09 ng·h/mL
- AUC0-τ ss (ng*h/mL) geometric mean [1, 5]: 90.98 ng·h/mL
- AUC(0-inf) [1, 5]: 92.4 ng·h/mL
- Cl/F (L/h) Mean [1, 5]: 254.40 L/h
- Tmax (h) Mean [1, 5]: 0.56 h
- Vd/F [1, 5]: 1740 L
- AUC(0-t) ([1]; human, inhaled or intranasal, 20 mg, AUC0-24 (ng*h/mL) geometric mean): 80.1 ng·h/mL
- AUC(0-t) ([1]; human, inhaled or intranasal, 20 mg, AUC0-t (ng*h/mL) geometric mean): 87.9 ng·h/mL
- Cmax ([1]; human, inhaled or intranasal, 20 mg, Cmax (ng/mL) geometric mean): 34.7 ng/mL
- Tmax ([1]; human, inhaled or intranasal, 20 mg, Tmax (h) Mean): 34.2 min
- half-life ([1]; human, inhaled or intranasal, 20 mg once daily intranasal (Cohort 3), Day 14, read-out: T1/2 el (h) Mean (converted)): 4.93 h
- concentration at 0.5 h ([1]; human, 5 mg, Day 14, nominal time 0.500 h, read-out: Plasma Concentrations (ng/mL) Mean): 8.08 ng/mL
- urine concentrations [1]: below the limit of quantitation
- logD (logD of drug substance): 1.21
- ALT or AST > 3 × ULN (subjects) ([2]; 5 mg (N = 388)): 0
- Bilirubin > 2 × ULN (subjects) ([2]; 5 mg (N = 388)): 0
- ALT or AST > 3 × ULN (subjects) ([2]; 10 mg (N = 394)): 0
- Bilirubin > 2 × ULN (subjects) ([2]; 10 mg (N = 394)): 0
- ALT or AST > 3 × ULN (subjects) ([2]; 20 mg (N = 403)): 0
- Bilirubin > 2 × ULN (subjects) ([2]; 20 mg (N = 403)): 0
- ALT or AST > 3 × ULN (subjects) ([2]; All zavegepant (N = 1185)): 0
- Bilirubin > 2 × ULN (subjects) ([2]; All zavegepant (N = 1185)): 0
- hepatotoxicity signal (AST or ALT >3xULN, total bilirubin >2xULN) ([2]; any treatment arm): no signal of hepatoxicity
- tolerability and safety ([2]; intranasal, single dose trial): well tolerated and safe
- AEs mild in intensity ([2]; single dose trial): > 80%
- pKa (pKa of drug substance): 4.8
- median Tmax, range across doses (clinical): 32.4 to 46.2 min
- median t1/2, range across doses (clinical): 150 to 264 min
- AUC(0-inf) (clinical; inhaled or intranasal, 1 mg): 3.5 ng·h/mL
- AUC(0-t) (clinical; inhaled or intranasal, 1 mg): 2.34 ng·h/mL
- Cmax (clinical; inhaled or intranasal, 1 mg): 1.34 ng/mL
- Tmax (clinical; inhaled or intranasal, 1 mg, Tmax (h) Median): 57.6 min
- half-life (clinical; inhaled or intranasal, 1 mg, t1/2 el (h) Median): 98.4 min
- AUC(0-inf) (clinical; inhaled or intranasal, 3 mg): 9.75 ng·h/mL
- AUC(0-t) (clinical; inhaled or intranasal, 3 mg): 7.85 ng·h/mL
- Cmax (clinical; inhaled or intranasal, 3 mg): 3.68 ng/mL
- Tmax (clinical; inhaled or intranasal, 3 mg, Tmax (h) Median): 46.8 min
- half-life (clinical; inhaled or intranasal, 3 mg, t1/2 el (h) Median): 134 min
- AUC(0-inf) (clinical; inhaled or intranasal, 5 mg): 20.9 ng·h/mL
- AUC(0-t) (clinical; inhaled or intranasal, 5 mg): 18.8 ng·h/mL
- Cmax (clinical; inhaled or intranasal, 5 mg): 7.8 ng/mL
- Tmax (clinical; inhaled or intranasal, 5 mg, Tmax (h) Median): 36 min
- half-life (clinical; inhaled or intranasal, 5 mg, t1/2 el (h) Median): 142 min
- Tmax (h) Median (clinical; inhaled or intranasal, 10 mg): 0.54 h
- AUC(0-inf) (clinical; inhaled or intranasal, 10 mg): 28.5 ng·h/mL
- AUC(0-t) (clinical; inhaled or intranasal, 10 mg): 26.2 ng·h/mL
- Cmax (clinical; inhaled or intranasal, 10 mg): 13.4 ng/mL
- Tmax (clinical; inhaled or intranasal, 10 mg, Tmax (h) Median): 32.4 min
- half-life (clinical; inhaled or intranasal, 10 mg, t1/2 el (h) Median): 175 min
- Tmax (clinical; inhaled or intranasal, Tmax (h) Median): 46.2 min
- half-life (clinical; inhaled or intranasal, t1/2 el (h) Median): 143 min
- Tmax (clinical; median Tmax, range across doses): 32.4 to 57.6 min
- half-life (clinical; median t1/2, range across doses): 96 to 282 min
